This assay deals with RKO p21 uninduced (proliferating) colon adenocarcinoma cells. Description: Alamar Blue cell viability assay, RKO p21 uninduced (proliferating). Type of assay: cell-based. The following applies: Homo sapiens, Table B3, anti-proliferative/cytotoxic activity, 72 hours, read-out: −log EC50 RKO p21 uninduced (proliferating) (converted). The method in brief:
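RKO p21 or p27 subclones grown without Ponasterone A, i.e. proliferating, exposed 24 h after seeding to semi-log compound dilutions in DMEM/10% FCS (1% DMSO controls) for 72 h at 37° C. Alamar Blue fluorescence (544/590 nm) read relative to untreated cells; EC50 from dose-response curves, given as −log EC50 (mol/l).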
On the technique in general: Resazurin is reduced to fluorescent resorufin, in cell work by metabolically active cells.

Each structure is given as a SMILES string.

As for `C[C@@]12Cc3c([nH]c4ccc(OC(F)F)cc34)[C@@H](c3cccc(O)c3)N1C(=O)N(CCN)C2=O` (racemic) [Example 283, (3aSR,10RS)-2-(2-Amino-ethyl)-6-(1,1-difluoro-methoxy)-10-(3-hydroxy-phenyl)-3a-methyl-3a4,9,10-tetrahydro-2,9,10a-triaza-cyclopenta[b]fluorene-1,3-dione], the EC50 is 39.8 to 251 nM.

In the case of `C[C@@]12Cc3c([nH]c4cc(F)c(Cl)cc34)[C@@H](c3cccc(O)c3)N1C(=O)N(CCNC1CCC1)C2=O` (racemic) [Example 344, (3aSR,10RS)-6-Chloro-2-(2-cyclobutylamino-ethyl)-7-fluoro-10-(3-hydroxy-phenyl)-3a-methyl-3a,4,9,10-tetrahydro-2,9,10a-triaza-cyclopenta[b]fluorene-1,3-dione], the EC50 is at most 39.8 nM.

For `C=CCN(C)CCN1C(=O)N2[C@H](c3cccc(O)c3)c3[nH]c4ccc(Br)cc4c3C[C@@]2(C)C1=O` (racemic) [Example 381, (3aSR,10RS)-2-[2-(Allyl-methyl-amino)-ethyl]-6-bromo-10-(3-hydroxy-phenyl)-3a-methyl-3a,4,9,10-tetrahydro-2,9,10a-triaza-cyclopenta[b]fluorene-1,3-dione], the EC50 is 39.8 to 251 nM.

For the compound `COc1cc2c3c([nH]c2cc1F)[C@@H](c1cccc(O)c1)N1C(=O)N(CCCNCC(C)C)C(=O)[C@]1(C)C3` (racemic) [Example 332, (3aSR,10RS)-7-Fluoro-10-(3-hydroxy-phenyl)-2-(3-isobutylamino-propyl)-6-methoxy-3a-methyl-3a,4,9,10-tetrahydro-2,9,10a-triaza-cyclopenta[b]fluorene-1,3-dione], the concentration for a half-maximal effect (EC50) was 39.8 to 251 nM.

Turning to `CCNCCCN1C(=O)N2[C@H](c3cccc(O)c3)c3[nH]c4cc(F)c(Cl)cc4c3C[C@@]2(C)C1=O` (racemic) [Example 457, (3aSR,10RS)-6-Chloro-2-(3-ethylamino-propyl)-7-fluoro-10-(3-hydroxy-phenyl)-3a-methyl-3a,4,9,10-tetrahydro-2,9,10a-triaza-cyclopenta[b]fluorene-1,3-dione], the concentration giving a half-maximal response (EC50) was 39.8 to 251 nM.

For `C[C@@]12Cc3c([nH]c4ccc(Br)cc34)[C@@H](c3cccc(O)c3)N1C(=O)N(CCCN1CCCC1)C2=O` (racemic) [Example 219, (3aSR,10RS)-6-Bromo-10-(3-hydroxy-phenyl)-3a-methyl-2-(3-pyrrolidin-1-yl-propyl)-3a,4,9,10-tetrahydro-2,9,10a-triaza-cyclopenta[b]fluorene-1,3-dione], the concentration giving a half-maximal response (EC50) is at most 39.8 nM.

Turning to `C[C@@]12Cc3c([nH]c4cc(F)c(Cl)cc34)[C@@H](c3cccc(O)c3)N1C(=O)N(CCN1CCCCCC1)C2=O` (racemic) [Example 361, (3aSR,10RS)-2-(2-Azepan-1-yl-ethyl)-6-chloro-7-fluoro-10-(3-hydroxy-phenyl)-3a-methyl-3a,4,9,10-tetrahydro-2,9,10a-triaza-cyclopenta[b]fluorene-1,3-dione], the EC50 was 39.8 to 251 nM.

As for `COc1cc2c3c([nH]c2cc1F)[C@@H](c1cccc(O)c1)N1C(=O)N(CCCNC(C)C)C(=O)[C@]1(C)C3` (racemic) [Example 331, (3aSR,10RS)-7-Fluoro-10-(3-hydroxy-phenyl)-2-{3-isopropylamino-propyl)-6-methoxy-3a-methyl-3a,4,9,10-tetrahydro-2,9,10a-triaza-cyclopenta[b]fluorene-1,3-dione], the EC50 was 39.8 to 251 nM.

For the compound `CCN(C)CCN1C(=O)N2[C@H](c3cccc(O)c3)c3[nH]c4ccc(OC(F)F)cc4c3C[C@@]2(C)C1=O` (racemic) [Example 275, (3aSR,10RS)-6-(1,1-Difluoro-methoxy)-2-[2-(ethyl-methyl-amino)-ethyl]-10-(3-hydroxy-phenyl)-3a-methyl-3a,4,9,10-tetrahydro-2,9,10a-triaza-cyclopenta[b]fluorene-1,3-dione], the concentration for a half-maximal effect (EC50) was at most 39.8 nM.

For the compound `CCOc1ccc2[nH]c3c(c2c1)C[C@@]1(C)C(=O)N(CCCN2CCN(C)CC2)C(=O)N1[C@@H]3c1cccc(O)c1` (racemic) [Example 229, (3aSR,10RS)-6-Ethoxy-10-(3-hydroxy-phenyl)-3a-methyl-2-[3-(4-methyl-piperazin-1-yl)-propyl]-3a,4,9,10-tetrahydro-2,9,10a-triaza-cyclopenta[b]fluorene-1,3-dione], the half-maximal effective concentration (EC50) is 39.8 to 251 nM.

As for `C[C@@]12Cc3c([nH]c4cc(F)c(Cl)cc34)[C@@H](c3cccc(O)c3)N1C(=O)N(CCCN1CC=CCC1)C2=O` (racemic) [Example 480, (3aSR,10RS)-6-Chloro-2-[3-(3,6-dihydro-2H-pyridin-1-yl)-propyl]-7-fluoro-10-(3-hydroxy-phenyl)-3a-methyl-3a,4,9,10-tetrahydro-2,9,10a-triaza-cyclopenta[b]fluorene-1,3-dione], the EC50 is 39.8 to 251 nM.

`CCN(CC)CCCN1C(=O)N2[C@H](c3cccc(O)c3)c3[nH]c4ccc(Br)cc4c3C[C@@]2(C)C1=O` (racemic) [Example 228, (3aSR,10RS)-6-Bromo-2-(3-diethylamino-propyl)-10-(3-hydroxy-phenyl)-3a-methyl-3a,4,9,10-tetrahydro-2,9,10a-triaza-cyclopenta[b]fluorene-1,3-dione]: the 50% effective concentration (EC50) was at most 39.8 nM.

In the case of `C#CCNCCCN1C(=O)N2[C@H](c3cccc(O)c3)c3[nH]c4cc(F)c(Cl)cc4c3C[C@@]2(C)C1=O` (racemic) [Example 466, (3aSR,10RS)-6-Chloro-7-fluoro-10-(3-hydroxy-phenyl)-3a-methyl-2-(3-prop-2-ynylamino-propyl)-3a,4,9,10-tetrahydro-2,9,10a-triaza-cyclopenta[b]fluorene-1,3-dione], the EC50 was 39.8 to 251 nM.

Consider `COc1cc2c3c([nH]c2cc1F)[C@@H](c1cccc(O)c1)N1C(=O)N(CCNCC2CC2)C(=O)[C@]1(C)C3` (racemic) [Example 251, (3aSR,10RS)-2-[2-(Cyclopropylmethyl-amino)-ethyl]-7-fluoro-10-(3-hydroxy-phenyl)-6-methoxy-3a-methyl-3a,4,9,10-tetrahydro-2,9,10a-triaza-cyclopenta[b]fluorene-1,3-dione], for which the EC50 is at most 39.8 nM.

As to `CCOc1ccc2[nH]c3c(c2c1)C[C@@]1(C)C(=O)N(CCCNCC2CC2)C(=O)N1[C@@H]3c1cccc(O)c1` (racemic) [Example 188, (3aSR,10RS)-2-[3-(Cyclopropylmethyl-amino)-propyl]-6-ethoxy-10-(3-hydroxy-phenyl)-3a-methyl-3a,4,9,10-tetrahydro-2,9,10a-triaza-cyclopenta[b]fluorene-1,3-dione], the EC50 was 39.8 to 251 nM.

With `C[C@@]12Cc3c([nH]c4ccc(Br)cc34)[C@@H](c3cccc(O)c3)N1C(=O)N(CCN1CCOCC1)C2=O` (racemic) [Example 388, (3aSR,10RS)-6-Bromo-10-(3-hydroxy-phenyl)-3a-methyl-2-(2-morpholin-4-yl-ethyl)-3a,4,9,10-tetrahydro-2,9,10a-triaza-cyclopenta[b]fluorene-1,3-dione], the EC50 is 39.8 to 251 nM.

With `CCN(CC)CCCN1C(=O)N2[C@H](c3cccc(O)c3)c3[nH]c4ccc(OC(F)F)cc4c3C[C@@]2(C)C1=O` (racemic) [Example 176, (3aSR,10RS)-2-(3-Diethylamino-propyl)-6-(1,1-difluoro-methoxy)-10-(3-hydroxy-phenyl)-3a-methyl-3a,4,9,10-tetrahydro-2,9,10a-triaza-cyclopenta[b]fluorene-1,3-dione], the EC50 is at most 39.8 nM.

Take `C=CCNCCN1C(=O)N2[C@H](c3cccc(O)c3)c3[nH]c4ccc(OC(F)F)cc4c3C[C@@]2(C)C1=O` (racemic) [Example 274, (3aSR,10RS)-2-(2-Allylamino-ethyl)-6-(1,1-difluoro-methoxy)-10-(3-hydroxy-phenyl)-3a-methyl-3a,4,9,10-tetrahydro-2,9,10a-triaza-cyclopenta[b]fluorene-1,3-dione]: the EC50 is at most 39.8 nM.

For `CCN(CCOC)CCN1C(=O)N2[C@H](c3cccc(O)c3)c3[nH]c4ccc(OC(F)F)cc4c3C[C@@]2(C)C1=O` (racemic) [Example 289, (3aSR,10RS)-6-(1,1-Difluoro-methoxy)-2-{2-[ethyl-(2-methoxy-ethyl)-amino]-ethyl}-10-(3-hydroxy-phenyl)-3a-methyl-3a,4,9,10-tetrahydro-2,9,10a-triaza-cyclopenta[b]fluorene-1,3-dione], the 50% effective concentration (EC50) is 39.8 to 251 nM.

Take `CCN(CCCN1C(=O)N2[C@H](c3cccc(O)c3)c3[nH]c4cc(F)c(Cl)cc4c3C[C@@]2(C)C1=O)CCOC` (racemic) [Example 471, (3aSR,10RS)-6-Chloro-2-{3-[ethyl-(2-methoxy-ethyl)-amino]-propyl}-7-fluoro-10-(3-hydroxy-phenyl)-3a-methyl-3a,4,9,10-tetrahydro-2,9,10a-triaza-cyclopenta[b]fluorene-1,3-dione]: the EC50 was 39.8 to 251 nM.

`CCN(CCO)CCCN1C(=O)N2[C@H](c3cccc(O)c3)c3[nH]c4ccc(OC)cc4c3C[C@@]2(C)C1=O` [Example 543, (3aS,10R)-2-{3-[Ethyl-(2-hydroxy-ethyl)-amino]-propyl}-10-(3-hydroxy-phenyl)-6-methoxy-3a-methyl-3a,4,9,10-tetrahydro-2,9,10a-triaza-cyclopenta[b]fluorene-1,3-dione]: the EC50 was at most 39.8 nM.

`CCOc1ccc2[nH]c3c(c2c1)C[C@@]1(C)C(=O)N(CCCN2CCCC2)C(=O)N1[C@@H]3c1cccc(O)c1` (racemic) [Example 221, (3aSR,10RS)-6-Ethoxy-10-(3-hydroxy-phenyl)-3a-methyl-2-(3-pyrrolidin-1-yl-propyl)-3a,4,9,10-tetrahydro-2,9,10a-triaza-cyclopenta[b]fluorene-1,3-dione]: the concentration for a half-maximal effect (EC50) was 39.8 to 251 nM.

Take `CN(CCO)CCN1C(=O)N2[C@H](c3cccc(O)c3)c3[nH]c4cc(F)c(Cl)cc4c3C[C@@]2(C)C1=O` (racemic) [Example 348, (3aSR,10RS)-6-Chloro-7-fluoro-2-{2-[(2-hydroxy-ethyl)-methyl-amino]-ethyl}-10-(3-hydroxy-phenyl)-3a-methyl-3a,4,9,10-tetrahydro-2,9,10a-triaza-cyclopenta[b]fluorene-1,3-dione]: the EC50 is 39.8 to 251 nM.

As usually defined, the EC50 is the concentration that produces a half-maximal response.

The values are drawn from patent US8530493B2, “Indolopyridines as Eg5 kinesin modulators” (4SC AG, priority 2006, dated 2013).
